Results as given in patent publication US12545900B2, “CGAS/DNCV-like nucleotidyltransferases and uses thereof” (Dana-Farber Cancer Institute, Inc., priority 2018, dated 2026).
“Also recorded” adds a separate entry of the source.

What was measured:
RECON [1] = molecular target: T1, RECON (Mus musculus, UniProt Q8VC28); experiment: RECON enzyme assay (oxidation of NADPH cosubstrate); type: biochemical; conditions: nucleotide 50-0.05 μM
T1 construct: 6xHis-SUMO2 (N, cleaved yes); made in house; host or cells: E. coli BL21 CodonPlus (DE3)-RIL
T1 sequence (Q8VC28 1-323): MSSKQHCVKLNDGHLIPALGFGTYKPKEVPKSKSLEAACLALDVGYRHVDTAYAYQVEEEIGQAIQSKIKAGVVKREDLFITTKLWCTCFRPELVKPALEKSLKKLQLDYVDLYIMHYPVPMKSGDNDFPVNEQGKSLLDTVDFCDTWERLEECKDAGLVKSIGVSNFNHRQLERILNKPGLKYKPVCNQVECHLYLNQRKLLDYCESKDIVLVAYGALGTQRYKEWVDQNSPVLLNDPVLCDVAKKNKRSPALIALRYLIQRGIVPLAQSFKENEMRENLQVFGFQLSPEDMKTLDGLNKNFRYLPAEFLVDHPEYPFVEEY
Description: Activity assays were performed as previously described (McFarland et al. (2017) Immunity 46:433-445). Briefly, a 2-fold dilution series of nucleotide from 50-0.05 μM was incubated in 1×PBS with 200 μM NADPH (cosubstrate) and 25 μM 9,10-Phenanthrenequinone (substrate). The reactions were started with the addition of RECON to a final concentration of 0.5 μM and absorbance at 340 nm was monitored at 20 s intervals for 20 min. Slope of each reaction in the linear range (20-250 s) was used to calculate activity (Linear regression/straight Line analysis, Prism 7.0c). Values were normalized to reactions with zero nucleotide added, which defined 100% activity.

Mus musculus STING = molecular target: T2, Mus musculus STING (Mus musculus, UniProt Q3TBT3); experiment: Gel shift assay, radiolabeled nucleotide binding to STING (native PAGE); conditions: radiolabeled nucleotide, 0, 4, 20, 100 μM protein
T2 construct: 6xHis-SUMO2 (N, cleaved yes); made in house; host or cells: E. coli BL21 CodonPlus (DE3)-RIL
T2 sequence (Q3TBT3 138-378 limits assumed): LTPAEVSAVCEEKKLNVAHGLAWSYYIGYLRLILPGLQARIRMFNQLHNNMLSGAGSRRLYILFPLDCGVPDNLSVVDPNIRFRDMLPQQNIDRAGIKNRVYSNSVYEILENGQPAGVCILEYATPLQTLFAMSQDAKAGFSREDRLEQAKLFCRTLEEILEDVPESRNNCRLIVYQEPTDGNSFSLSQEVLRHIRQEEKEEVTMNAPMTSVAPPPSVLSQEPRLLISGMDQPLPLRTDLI
Description: (§1) Briefly, recombinant Mus musculus STING or RECON, at 4, 20, or 100 μM was incubated with radiolabeled nucleotide (≤1 μM final concentration) in gel shift buffer for final conditions of 50 mM Tris pH 7.5, 60 mM KCl, 5 mM Mg (OAc) 2, and 1 mM DTT. Experiments were prepared by combining 1 μL of [α-^32P] labeled nucleotide, 2 uL 5x gel shift buffer, 5 μL of nuclease free water, and started by addition of 2 μL of recombinant protein in storage buffer.
(§2) After 30 min of equilibration, bound and free nucleotide were separated by 6% native PAGE in 0.5x TBE buffer. Gels were dried, and exposed to phosphorscreen prior to detection by Typhoon Trio Variable Mode Imager system (GE Healthcare). Gel shifts were quantified with ImageQuant® 5.2 and the % bound nucleotide was calculated as a proportion of total bound and free nucleotide for each lane, after subtraction of background signal. Gel shift data is representative of ≥2 independent experiments.

RECON [2] = molecular target: T1, RECON; experiment: Gel shift assay, radiolabeled nucleotide binding to RECON (native PAGE); conditions: radiolabeled nucleotide, 0, 4, 20, 100 μM protein
Description: as §1, §2

CapE = molecular target: T3, CapE (Escherichia coli, UniProt Q6XGD4); experiment: Phospholipase assay (EnzChek Phospholipase A1), CapE; type: biochemical, E. coli; conditions: 0.1, 1, and 10-fold molar ratios of nucleotide to phospholipase
T3 construct: made in house; host or cells: E. coli BL21 CodonPlus (DE3)-RIL
T3 sequence (Q6XGD4 whole entry): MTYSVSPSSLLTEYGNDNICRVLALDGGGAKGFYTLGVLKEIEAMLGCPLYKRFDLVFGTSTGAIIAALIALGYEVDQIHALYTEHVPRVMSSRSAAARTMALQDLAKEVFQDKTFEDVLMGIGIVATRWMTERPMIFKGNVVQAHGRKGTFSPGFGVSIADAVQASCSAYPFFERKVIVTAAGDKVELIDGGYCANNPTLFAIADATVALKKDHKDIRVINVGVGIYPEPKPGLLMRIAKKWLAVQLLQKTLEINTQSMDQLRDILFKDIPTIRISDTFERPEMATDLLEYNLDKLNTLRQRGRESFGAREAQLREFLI
Description: Patatin-like lipases were assayed as previously described (Gaspar & Machner (2014) Proc. Natl. Acad. Sci. U.S.A. 111:4560-4565). Briefly, CapV and CapE were produced recombinantly and catalytic activity was measured using the EnzChek® Phospholipase A1 Assay Kit (Invitrogen) according to the manufacturer's instructions. […] Assays were monitored fluorometrically Ex=460 nm/Em=515 nm, for 60 min at ˜90 s intervals at room temperature using a Biotek Synergy plate reader. Slope of each reaction in the linear range was used to calculate activity (Linear regression/straight line analysis, Prism 7.0c). A PLA1 standard curve from 20-0.02 U was used to interpolate phospholipase activity. Emission was monitored at a gain of 100 and/or 50 in order to extend the linear range of the assay.

[3] = test system: interferon-β reporter in HEK293T cells expressing Mus musculus STING; experiment: Cellular assay for interferon-β induction (in-cell STING reporter assay); conditions: HEK293T cells transfected with plasmid overexpressing the synthesizing enzyme

Compound | inhibition of RECON enzymatic activity (RECON [1]) | recognition/binding of nucleotide by STING (Mus musculus STING) | recognition/binding of nucleotide by RECON (RECON [2]) | activation of CapE phospholipase activity (CapE) | activation of STING-dependent type I interferon (IFN-β reporter) [3]
Nc1nc2c(ncn2[C@@H]2O[C@@H]3COP(=O)(O)O[C@H]4[C@@H](O)[C@H](n5cnc6c(N)ncnc65)O[C@@H]4COP(=O)(O)O[C@H]4[C@@H](O)[C@H](n5cnc6c(N)ncnc65)O[C@@H]4COP(=O)(O)O[C@H]3[C@H]2O)c(=O)[nH]1 [cAAG, 3′3′3′ tricyclic adenosine monophosphate-adenosine monophosphate-guanosine monophosphate] | inhibition of RECON enzymatic activity | escaped STING recognition | detected by RECON | – | –
Nc1ncnc2c1ncn2C1OC2COP(=O)(O)OC3C(COP(=O)(O)OC2C1O)OC(n1ccc(=O)[nH]c1=O)C3O (stereo not shown) [cUMP-AMP, 3′3′ cyclic uridine monophosphate-adenosine monophosphate] | inhibited RECON function, albeit with a reduced potency compared to the previously reported inhibition by c-di-AMP and 3′3′ cGAMP | – | bound to cUMP-AMP; also recorded: detected by RECON | CapE as a direct cUMP-AMP receptor | failed to activate STING-dependent type I interferon in cells
